In patent publication US12269815B2, “Dantrolene prodrugs and methods of their use” (EAGLE RESEARCH LABS LIMITED, priority 2017, dated 2025):
Like-named read-outs stand apart in the source and are kept apart here.

Assays:
[1] = Whole-blood pharmacokinetics of Compound 2a in live rats (second analysis); assay type: in vivo; details: 7.5 mg/kg Compound 2a
[2] = Another pharmacokinetic analysis of Compound 2a in live rats (whole blood and plasma; IV, IM, SC); assay type: in vivo; details: 7.5 mg/kg Compound 2a
[3] = set-up: species or system Harlan Sprague Dawley rats; details: rat, in vivo, 7.5 mg/kg
Protocol: Compound 2a is formulated at 8 mg/mL in 5% aqueous mannitol (as a tonicity modifier), at pH 8.0. The formulation is administered IV, SC, or IM to cannulated Harlan Sprague Dawley rats (3 rats/group) from Envigo RMS, Inc. (Indianapolis, Ind.). […] Whole blood (0.1 mL) is collected via a jugular vein catheter at 0, 0.033 (IV only), 0.083, 0.167, 0.33, 0.66, 1, 3, 6, and 9 hours. […] Samples are then placed on wet ice until centrifugation to remove precipitate. […] Samples are quantified based on standard curves prepared with each analyte in the precipitated whole blood matrix. […] Area Under the Curve (AUC) is calculated using the trapezoidal rule by SigmaPlot 12.5 software.

[4] = not given; remark: listed apart in the source
[5] = rat, in vivo; for % Bioavailability of dantrolene: 7.5 mg/kg
physchem = details: rat, plasma
[6] = cited from earlier work

Structure (SMILES): O=C1CN(/N=C/c2ccc(-c3ccc([N+](=O)[O-])cc3)o2)C(=O)N1COP(=O)([O-])[O-].[Na+].[Na+] [Compound 2a]
- % Bioavailability of dantrolene ([1]; IM): 95.3%
- % Bioavailability of dantrolene ([1]; IV): 100%
- % Bioavailability of dantrolene ([2]; plasma, IM): 56.7%
- % Bioavailability of dantrolene ([2]; plasma, IV): 100%
- % Bioavailability of dantrolene ([2]; plasma, SC): 49.7%
- % Bioavailability of dantrolene ([2]; whole blood, IM): 80.8%
- % Bioavailability of dantrolene ([2]; whole blood, IV): 100%
- % Bioavailability of dantrolene ([2]; whole blood, SC): 64.0%
- appearance of dantrolene in the blood after administration [3]: rapid appearance of dantrolene in the blood
- half-life of prodrug in rat plasma: 1.37 h
- conversion to dantrolene in phosphate-buffered saline [4]: no conversion was observed
- amount of 2a observed after administration [5]: only trace amounts
- % Bioavailability of dantrolene ([5]; im): 77.8%
- % Bioavailability of dantrolene ([5]; iv): 100%

Structure (SMILES): O=C(O)CCC(=O)OCc1ccc(NC(=O)OCN2C(=O)CN(/N=C/c3ccc(-c4ccc([N+](=O)[O-])cc4)o3)C2=O)cc1 [Compound 17b]
- half-life at 100 μg/mL (physchem): 7.45 h

Structure (SMILES): Cl.NCC(=O)OCN1C(=O)CN(/N=C/c2ccc(-c3ccc([N+](=O)[O-])cc3)o2)C1=O [Compound 22c]
- half-life of prodrug in rat plasma: 0.0533 h
- reconversion in phosphate-buffered saline [4]: 85%

Structure (SMILES): O=C1CN(/N=C/c2ccc(-c3ccc([N+](=O)[O-])cc3)o2)C(O)=N1 [Dantrolene, 1-{[5-(4-nitrophenyl)-2-furyl]methylideneamino}imidazolidine-2,4-dione]
- solubility in water [6]: very poorly soluble in water
